Earlier results, collected in patent publication US6528705B1, “Method for improving productivity of higher plants” (Nara Institute of Science and Technology, priority 1999, dated 2003).
Where two headings read alike, the source gives them in different places. Blank lines part the entries; values can stand above or below the molecule they belong to.

Experiments:
[1] = system: Synechococcus PCC 7942 FBPase-I (fructose-1,6-bisphosphatase/sedoheptulose-1,7-bisphosphatase, FBPase/SBPase), wild type, sequence number 1; settings: purified enzyme
[2] = system: Synechococcus PCC 7942 FBPase-I (fructose-1,6-bisphosphatase/sedoheptulose-1,7-bisphosphatase, FBPase/SBPase), wild type, sequence number 1
[3] = system: Synechococcus PCC 7942 FBPase-I (fructose-1,6-bisphosphatase/sedoheptulose-1,7-bisphosphatase, FBPase/SBPase), wild type, sequence number 1; settings: after the treatment by 1 mM H2O2; purified enzyme

SMILES: O=P(O)(O)OC[C@H]1OC(O)(COP(=O)(O)O)[C@@H](O)[C@@H]1O (some centres unmarked) [Fru1,6-P2, fructose-1,6-bisphosphate]
Km ([1]; substrate Fru1,6-P2, read-out: Km for Fru1,6-P2): 52 µM

SMILES: OO [H2O2]
native enzyme activity retained [3]: more than 80%

SMILES: O=P(O)(O)OC[C@@H](O)[C@H]1OC(O)(COP(=O)(O)O)[C@@H](O)[C@@H]1O (some centres unmarked) [Sed1,7-P2, sedoheptulose-1,7-bisphosphate]
Km ([1]; substrate Sed1,7-P2, read-out: Km for Sed1,7-P2): 118 µM

More lines, now with the values ahead:

inhibition of enzyme activity ([2]; fructose-2,6-P2, concentration not given): not inhibited
SMILES: O=P(O)(O)OC[C@H]1O[C@@](CO)(OP(=O)(O)O)[C@@H](O)[C@@H]1O [fructose-2,6-P2]

Ki ([2]; inhibition of the enzyme activity by AMP): 260 µM
SMILES: Nc1ncnc2c1ncn2[C@@H]1O[C@H](COP(=O)(O)O)[C@@H](O)[C@H]1O [AMP]
